In ChEMBL document CHEMBL1159363, “New cytotoxic alkaloids from the wood of Vepris punctata from the Madagascar rainforest” (J Nat Prod, 2003):
Values after ≈ are worked out from the molar mass of the structure shown.

The molecules below were run on A2780 (assay: Cytotoxicity against human A2780 cells).
Format: functional, cell-based

Structure (SMILES) | IC50 [µg/mL]
COc1c2c(c(OC)c3c(OC)c4ccoc4nc13)OCO2 | 3.5 (≈ 11.5 µM)
COc1c2c(cc3nc4occc4c(OC)c13)OCO2 | 2.8 (≈ 10.2 µM)
COc1c(OC)c(OC)c2c(OC)c3ccoc3nc2c1OC | 3.4 (≈ 10.6 µM)
COc1c2ccoc2nc2c(OC)c3c(cc12)OCO3 [FLINDERSIAMINE] | 3.3 (≈ 12.1 µM)
COc1cc2nc3occc3c(OC)c2cc1OC [KOKUSAGININE] | 3.5 (≈ 13.5 µM)
COc1c2cc3c(cc2nc2occc12)OCO3 [MACULINE] | 4 (≈ 16.4 µM)
COc1ccc2c(OC)c3ccoc3nc2c1OC [SKIMMIANINE] | 4.2 (≈ 16.2 µM)
